The record followed here is ChEMBL document CHEMBL5728559, “Alkylphenyl compounds” (2021).

The target of assay [1] is Sphingosine 1-phosphate receptor 1 (Homo sapiens, UniProt P21453). In words: S1P1 Binding Assay: Membranes were prepared from CHO cells expressing human S1P1. Cells pellets (1×10^9 cells/pellet) were suspended in buffer containing 20 mM HEPES (4-(2-hydroxyethyl)-1-piperazineethanesulfonic acid), pH 7.5, 50 mM NaCl, 2 mM EDTA (Ethylenediamine tetraacetic acid) and Protease Inhibitor cocktail (Roche), and disrupted on ice using the Polytron homogenizer. The homogenate was centrifuged at 20,000 rpm (48,000 g) and the supernatant was discarded. The membrane pellets were resuspended in buffer containing 50 mM HEPES, pH 7.5, 100 mM NaCl, 1 mM MgCl2, 2 mM EDTA and stored in aliquots at −80° C. after protein concentration determination.Membranes (2 μg/well) and 0.03 nM final concentration of 33P-S1P ligand (1 mCi/ml, Perkin Elmer or American Radiolabeled Chemicals) diluted in assay buffer (50 mM HEPES, pH7.4, 5 mM MgCl2, 1 mM CaCl2, 0.5% fatty acid free BSA(bovine serum albumin), 1 mM NaF) were added to the compound plates (384 Falcon v-bottom plate (0.5 μl/well in a 11 point, 3-fold dilution). Binding was performed for 45 minutes at room temperature, terminated by collecting the membranes onto 384-well Millipore FB filter plates, and radioactivity was measured by TOPCOUNT®. The competition data of the test compounds over a range of concentrations was plotted as percentage inhibition of radioligand specific binding. […].
Chain of Sphingosine 1-phosphate receptor 1 (P21453 whole entry): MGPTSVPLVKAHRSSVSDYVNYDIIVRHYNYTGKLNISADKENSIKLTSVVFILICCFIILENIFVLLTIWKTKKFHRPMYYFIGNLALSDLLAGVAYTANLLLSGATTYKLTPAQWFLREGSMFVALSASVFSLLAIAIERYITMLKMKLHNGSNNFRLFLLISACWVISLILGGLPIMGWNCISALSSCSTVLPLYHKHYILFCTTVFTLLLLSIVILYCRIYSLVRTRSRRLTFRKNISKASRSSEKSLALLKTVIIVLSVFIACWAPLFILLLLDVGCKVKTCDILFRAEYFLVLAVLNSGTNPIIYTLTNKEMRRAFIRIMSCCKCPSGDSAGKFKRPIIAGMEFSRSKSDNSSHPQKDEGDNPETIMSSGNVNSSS

Assay [2] deals with Sphingosine 1-phosphate receptor 3 (Homo sapiens, UniProt Q99500). Nature of the assay: Receptor [35S] GTPgammaS Binding Assays: Compounds were loaded in a 384 Falcon v-bottom plate (0.5 μL/well in a 11 point, 3-fold dilution). Membranes prepared from S1P1/CHO cells or EDG3-Gal5-bla HEK293T cells (EDG3 equivalent S1P3) were added to the compound plate (40 μL/well, final protein 3 μg/well) with MULTIDROP®. [35S]GTP (1250 Ci/mmol, Perkin Elmer) was diluted in assay buffer: 20 mM HEPES, pH7.5, 10 mM MgCl2, 150 mM NaCl, 1 mM EGTA(ethylene glycol tetraacetic acid), 1 mM DTT (dithiothreitol), 10 μM GDP, 0.1% fatty acid free BSA, and 10 μg/ml Saponin to 0.4 nM. 40 μL of the [35S] GTP solution was added to the compound plate with a final concentration of 0.2 nM. The reaction was kept at room temperature for 45 min. At the end of incubation, all the mixtures in the compound plate were transferred to Millipore 384-well FB filter plates via the VELOCITY11® Vprep liquid handler. The filter plate was washed with water 4 times by using the manifold Embla plate washer and dried at 60° C. for 45 min. MicroScint 20 scintillation fluid (30 μL) was added to each well for counting on the Packard TOPCOUNT®. EC50 is defined as the agonist concentration that corresponds to 50% of the Ymax (maximal response) obtained for each individual compound tested.A smaller value for GTPγS S1P1 EC50 value indicated greater activity for the compound in the GTPγS S1P1 binding assay. […]. For orientation: GTPγS resists hydrolysis and so accumulates on activated G proteins.
Chain of Sphingosine 1-phosphate receptor 3 (Q99500 whole entry): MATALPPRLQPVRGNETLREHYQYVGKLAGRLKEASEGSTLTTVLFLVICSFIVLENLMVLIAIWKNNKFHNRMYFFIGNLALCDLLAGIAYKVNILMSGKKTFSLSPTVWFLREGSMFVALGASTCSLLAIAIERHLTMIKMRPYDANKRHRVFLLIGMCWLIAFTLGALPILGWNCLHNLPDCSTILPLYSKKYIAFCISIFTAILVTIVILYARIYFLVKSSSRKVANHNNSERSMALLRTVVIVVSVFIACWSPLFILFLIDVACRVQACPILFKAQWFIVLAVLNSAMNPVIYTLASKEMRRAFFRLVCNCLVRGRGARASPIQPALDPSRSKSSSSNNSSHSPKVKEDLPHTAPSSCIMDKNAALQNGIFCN

In general, EC50 refers to the midpoint of the concentration-response curve.

A value given as a limit tells only on which side of the number the result lay.

As to `CCCCCCCCc1cc(C)c(N2CCC(N)(COP(=O)(O)O)C2=O)c(C)c1` (configuration not stated), the values for the concentration giving a half-maximal response (EC50) in assay [1] and in assay [2] were 14.4 µM and over 60 µM, respectively.
